We go through two compounds from patent publication US20130022612A1, “METHODS AND COMPOSITIONS FOR MALARIA PROPHYLAXIS” (priority 2004, published 2013).

Assay [1] deals with CSP processing in P. berghei sporozoites. Briefly: Pulse-chase metabolic labeling of CSP processing, P. berghei sporozoites. In kind it is cell-based, Plasmodium berghei. As for the experimental part: P. berghei sporozoites were incubated in Dulbecco's Modified Eagle Medium (DMEM; Invitrogen, Carlsbad, Calif.) without cysteine (Cys) and methionine (Met), containing 1% BSA and […] L-[35 S]-Cys/Met (Pro-Mix, Amersham Pharmacia) in a total volume of 200 μl for one hour at 28° C. They were then washed and resuspended in DMEM/BSA containing unlabeled Cys/Met at 28° C. for the indicated time in the presence or absence of the indicated protease inhibitor. Sporozoites were then lysed and CSP was immunoprecipitated and analyzed by autoradiography as outlined below.
When sporozoites were incubated with specific inhibitors, their concentrations were as follows: 10 […] E-64; 1 mM phenylmethylsulfonyl fluoride (PMSF); 0.3 mM aprotinin; 100 mM 3,4 DCl; 75 mM leupeptin; 100 mM TLCK; 1 mM pepstatin; 1 mM 1,10 phenanthroline; 5 mM EDTA; 0.5% sodium azide. To check for toxicity by propidium iodide (PI) staining, P. berghei sporozoites were incubated in the presence or absence of the various protease inhibitors for two hours at 28° C., PI was then added to a final concentration of […] for five minutes at 28° C. The sporozoites were washed and viewed under a fluorescent microscope.
Metabolically-labeled sporozoites were lysed in lysis buffer (1% Triton X-100, 50 mM Tris-HCl pH 8.0) with 150 mM NaCl containing a protease inhibitor cocktail (Complete Mini-Tablets, Roche) for one hour at 4° C. The lysates were incubated with mAb 3D11 conjugated to agarose overnight at 4° C. with agitation, and the beads were then washed sequentially with lysis buffer containing 150 mM NaCl, high salt buffer (500 mM NaCl in lysis buffer), lysis buffer without added NaCl, and pre-elution buffer (0.5% Triton X-100, 10 mM Tris-HCl pH 6.8). CSP was eluted with 1% SDS in 0.1 M glycine pH 1.8, neutralized with 1.5 M Tris-HCl pH 8.8, and run on a 7.5% SDS-polyacrylamide gel under nonreducing conditions.
P. berghei sporozoites were metabolically labeled as previously described (Bruna-Romero, O., et al.). Briefly, sporozoites were labeled in Dulbecco's Modified Eagle Medium containing 1% BSA (DMEM/BSA) without Cys/Met and with 400 μCi/ml L-[^35S]Cys/Met for one hour at 28° C. and chased in DMEM/BSA with Cys/Met at 28° C. in the presence of 10 μM E-64 or the indicated concentrations of allicin. Labeled sporozoites were lysed in 1% Triton X-100/150 mM NaCl/50 mM Tris-HCl pH 8.0 with protease inhibitors, and lysates were incubated with 3D11-sepharose overnight at 4° C. CSP was eluted with 1% SDS in 0.1 M glycine pH 1.8, neutralized with Tris-HCl pH 8.8, and run on a 7.5% SDS-polyacrylamide gel under nonreducing conditions. The gel was fixed, enhanced with Amplify (Amersham Pharmacia), dried and exposed to film.
P. berghei sporozoites were metabolically labeled in DMEM without Cys/Met, 1% BSA and 400 μCi/ml L-[^355]-Cys/Met for 1 hour at 28° C. and then kept on ice or chased at 28° C. for the indicated times. Details of this procedure are outlined in (Coppi et al., 2005). To investigate the kinetics of processing in the presence of hepatocytes, sporozoites were labeled as above, chased at 28° C. for 1 hour and then centrifuged (300×g) onto glass coverslips with Hepa 1-6 cells and incubated at 37° C. for 5, 15 or 30 minutes. To investigate the effect of antibodies on CSP cleavage, sporozoites were labeled as above and then chased for 2 hours in the presence of the indicated antibody. Monoclonal antibodies were used as purified antibodies at the indicated concentrations and the IgG fraction of the NH2-terminal antiserum was used after isolation by Protein A (Vivapure maxiprepA; Sartorius, Edgewood, N.Y.). In all cases, labeled sporozoites (with or without Hepa 1-6 cells) were lysed and labeled CSP was immunoprecipitated with mAb-3D11 conjugated to sepharose or in the case of P. falciparum CSP, with mAb-2A10 conjugated to sepharose, as previously described (Coppi et al., 2005). CSP was eluted from the beads, run on an SDS-PAGE gel which was enhanced, dried and exposed to film. […]

A further assay concerns P. berghei sporozoites. In kind it is cell-based, Plasmodium berghei. As for the experimental part: %invasion=total sporozites−extracellular sporozites×100/total sporozites
Invasion assays were performed as previously described (Pinzon-Ortiz, C., et al.) with some modifications. […] Cells were then washed, fixed, and sporozoites were stained with a double staining assay that distinguishes between intracellular and extracellular sporozoites (Renia, L., et al.). […]

A further assay has as its system P. yoelii sporozoites. Briefly: Sporozoite infectivity in vivo (liver 18S rRNA by RT and real time PCR). Set-up: species or system Plasmodium yoelii in Swiss/Webster mice. As for the experimental part: Swiss/Webster mice were given three intraperitoneal injections of DMEM with or without E-64 (50 mg/kg/injection) at 16 hours, 2.5 hours, and 1 hour prior to intravenous injection of 15,000 P. yoelii sporozoites. Forty hours later, livers were harvested and total RNA was isolated using Tri-Reagent (Molecular Research Center, Cincinnati, Ohio). Malaria infection was quantified using reverse-transcription (RT) followed by real time PCR as outlined in (Bruna-Romero, et al. (2001)). RTs were performed with […] of total RNA and random hexamers (PE Applied Biosystems, Foster City, Calif.). Real time PCR was performed using primers that recognize P. yoelii-specific sequences within the 18S rRNA (Bruna-Romero, et al. (2001)) and the SYBR Green Core PCR kit (PE Applied Biosystems). Ten-fold dilutions of a plasmid construct containing the P. yoelii 18S gene were used to create a standard curve.
Swiss/Webster mice were given either 5 or 8 mg/kg of allicin (in DMEM without Cys/Met) intravenously (i.v.) at 60 minutes, 30 minutes, or immediately before i.v. injection of 10^4 P. yoelii sporozoites. Forty hours later, livers were harvested, total RNA was isolated, and malaria infection was quantified using reverse transcription (RT) followed by real time PCR using primers that recognize P. yoelii-specific sequences within the 18S rRNA as previously described (Bruna-Romero, O., et al.). Ten-fold dilutions of a plasmid construct containing the P. yoelii 18S rRNA gene were used to create a standard curve. For allicin preincubation experiments, P. yoelii sporozoites were preincubated with or without 50 μM allicin (in DMEM without Cys/Met) for ten minutes at 28° C. and diluted 12-fold with medium before i.v. injection into mice. All in vivo data were analyzed using the Student t-test for unpaired samples.

`CC(C)C[C@H](NC(=O)[C@H]1O[C@@H]1C(=O)O)C(=O)NCCCCN=C(N)N` (relative stereo) [E-64, L-trans-epoxysuccinyl-leucylamide-[4-guanido]-butane]: the “effect on CSP processing” value in assay [1] (two hour chase at 28° C., 10 mM E-64, 1 mM PMSF, 0.3 mM aprotinin, 100 mM 3,4 DCl, 75 mM leupeptin, 100 mM TLCK, 1 mM pepstatin, 1 mM 1,10 phenanthroline, 5 mM EDTA) is reported as “inhibited CSP processing”. For the same compound, the “effect on sporozoite invasion, target cells pretreated” value with P. berghei sporozoites (Hepa 1-6 cells pretreated with E-64, untreated sporozoites) is on record as “no inhibitory effect on sporozoite invasion”. The “number of extracellular (attached) sporozoites” value in the assay with P. berghei sporozoites (in the presence of E-64) is on record as “always enhanced”. Further, in the assay with P. berghei sporozoites (sporozoites preincubated two hours with 10 mM E-64, Hepa 1-6 cells, one hour), the inhibition of invasion is 90%. For the same compound, the “intracellular sporozoites in the presence of inhibitor” value with P. berghei sporozoites (wild type and RCon sporozoites, Hepa 1-6, 1 hr) was “few intracellular wild type and RCon sporozoites”. Besides, the “protection from malaria infection (liver P. yoelii 18S rRNA)” value with P. yoelii sporozoites (E-64 50 mg/kg/injection intraperitoneal at 16 hours, 2.5 hours, 1 hour before 15,000 sporozoites i.v.) is given as “completely protected from malaria infection”.
Take `C=CCS[S+]([O-])CC=C` (centres unmarked) [allicin]: the CSP cleavage entry in assay [1] (50 μM allicin for 10 minutes, then diluted to 4.2 μM for the remainder of the chase) is on record as “prevented CSP cleavage to the same extent as when 50 μM allicin was present during the entire chase”; in assay [1] (10, 25, and 50 μM allicin, two hour chase), “inhibited”. Besides, the “degree of inhibition of CSP cleavage relative to E-64” value in assay [1] (allicin versus 10 μM E-64) was “comparable to that observed with E-64”. For the same compound, the “sporozoite invasion of cells” value in the assay with P. berghei sporozoites (10, 25, and 50 μM allicin pretreatment) is reported as “inhibited sporozoite invasion of cells in a dose dependent manner”. The “effect on invasion, host cells pretreated” value in the assay with P. berghei sporozoites (Hepa 1-6 cells preincubated with 50 μM allicin one hour, untreated sporozoites) is “no effect on invasion”. Further, the “sporozoite infectivity in vivo versus untreated controls” value with P. yoelii sporozoites (8 mg/kg allicin i.v. just before injection of sporozoites) is reported as “significantly decreased infectivity”. Besides, the protection in vivo entry in the assay with P. yoelii sporozoites (8 mg/kg allicin i.v. one hour before sporozoites) is reported as “little protection”. Also, the “sporozoite infectivity in vivo versus untreated mice” value in the assay on P. yoelii sporozoites (8 mg/kg allicin i.v. thirty minutes before sporozoites) is reported as “decreased infectivity”. Further, the reduction in infection in the assay on P. yoelii sporozoites (allicin 5 mg/kg i.v. one minute before sporozoites) turned out to be 10 fold. Moreover, the “decrease in infection compared to controls” value in the assay on P. yoelii sporozoites (allicin 8 mg/kg i.v. one minute before sporozoites) is listed as 1000 fold. Also, the “malaria infection in mice injected with pretreated sporozoites” value in the assay with P. yoelii sporozoites (sporozoites preincubated with 50 μM allicin ten minutes, diluted 12-fold) is “no evidence of malaria infection”.
